Here are results for six compounds from patent publication US20070020340A1, “Fish oil products for reducing cholesterol, low density lipoprotein, and hypertension” (priority 2005, published 2007).

Experiment [1] relates to men with moderately elevated cholesterol who also suffered from moderate to high hypertension. In words: 16-week study of fish oil (EPA/DHA) with or without allicin, oleuropein or Policosanol in eight treatment groups. Format: in vivo, human. Particulars: after sixteen weeks of daily treatment. As for the experimental part: Eighty men with moderately elevated cholesterol who also suffered from moderate to high hypertension, were assigned to one of eight treatment groups, and followed for 16 weeks. The EPA and DHA administered was from fish oil and in free fatty acid form containing 3 grams of EPA and 2 grams of DHA, administered daily. Group one received fish oil alone. Group two received the same amount of fish oil with 5 mg allicin dissolved in the fish oil. Group three received the same amount of fish oil with 100 mg oleuropein dissolved therein. Group four received the same amount of fish oil with 10 mg of Policosanol dissolved therein. Group five received soft gelatin capsules with sunflower oil rather than fish oil. Group six received 5 mg of allicin dissolved in sunflower oil. Group seven received 100 mg oleuropein dissolved in sunflower oil. Group eight received Policosanol dissolved in sunflower oil. After sixteen weeks of treatment, the results were as follows: • 1. Group one registered 5% lowering of serum triglycerides. There was no change in HDL cholesterol and an 8% increase in LDL. Systolic blood pressure dropped by average of 3% and diastolic blood pressure dropped by average of 2%. • 2. Group two registered a 30% lowering of triglycerides, 12% decrease in LDL, and 8% increase in HDL. Both systolic and diastolic blood pressure dropped by an average of 10% • 3. Group three registered a 25% lowering of serum triglycerides, 10% decrease of LDL, and 10% increase in HDL. Systolic pressure dropped by average of 12% and diastolic pressure dropped by average of 10% • 4. Group four registered 20% lowering of serum triglycerides, 12% decrease of LDL, and 8% increase in HDL. Systolic and diastolic pressure dropped by average of 10%. • 5. Group five had no change in any of the parameters tested. • 6. Group six registered 3% lowering of serum triglycerides, 6% lowering of LDL and 2% increase of HDL. Sistolic and diastolic pressure dropped by average of 5% • 7. […] Systolic blood pressure dropped by average of 7% and diastolic pressure dropped by average of 5%. • 8. Group eight registered 10% lowering of serum triglycerids, 8% lowering of LDL, and 5% increase of HDL.

The test system of another experiment is hyperlipidemic rabbits. The conditions noted are these: cholesterol-rich diet; cited from earlier work.
For another experiment, the system named is interleukin-1-beta. The conditions noted are these: cited from earlier work.
For experiment [2] the following is noted: compared with oleuropein, tyrosol, hydroxytyrosol; cited from earlier work.

As to `C/C=C1/[C@H](O[C@@H]2O[C@H](CO)[C@@H](O)[C@H](O)[C@H]2O)OC=C(C(=O)OC)[C@H]1CC(=O)OCCc1ccc(O)c(O)c1` [Group seven, oleuropein], in experiment [1], the “diastolic blood pressure dropped by average of” value is 5%, the “lowering of serum triglycerides” value worked out at 12% and the “systolic blood pressure dropped by average of” value was found to be 7%.
As to `C=CCS[S+]([O-])CC=C` (stereo not drawn) [Group six, allicin], in experiment [1], the “decrease in LDL” value is 6%, the “diastolic blood pressure dropped by average of” value worked out at 5%, the “increase in HDL” value is given as 2% and the “lowering of serum triglycerides” value worked out at 3%. Further, in experiment [1], the “systolic blood pressure dropped by average of” value was 5%.
With `C=CCS[S+]([O-])CC=C` (stereo not drawn) [allicin], the “effect on the serum lipid profile” value with hyperlipidemic rabbits is listed as “beneficial effect”.
`O=C(O)/C=C/c1ccc(O)c(O)c1` [carreic acid]: in the experiment with interleukin-1-beta, the “concentration of interleukin-1-beta” value is “decreased”.
As for `COc1cc(CCO)ccc1O` [homovanillic alcohol], in experiment [2], the antioxidant potency entry is listed as “significantly more potent antioxidant than the other phenolics”.
`C/C=C1/[C@H](O[C@@H]2O[C@H](CO)[C@@H](O)[C@H](O)[C@H]2O)OC=C(C(=O)OC)[C@H]1CC(=O)OCCc1ccc(O)c(O)c1` [oleuropein glycoside]: the “concentration of interleukin-1-beta” value in the experiment on interleukin-1-beta is on record as “decreased”.
